# Source: patent US20170313669A1, “LACTONE COMPOUNDS AND METHODS OF MAKING AND USING SAME” (THE SCRIPPS RESEARCH INSTITUTE, priority 2015, published 2017)
# What was measured:
# ABHD12−/− macrophages = experiment: Lyso-PS and cytokine secretion of ABHD12−/− macrophages; type: cell-based, mouse; conditions: pre-treatment 1 μM, 4 h
# Protocol: (a, b) Concentrations of secreted cytokines from ABHD12^+/+ and ABHD12^−/− thioglycollate-elicited peritoneal macrophages that were either unstimulated (PBS) (a) or stimulated (b) with LPS (5 μg/mL, 7 h). […] Student's t-test: * p<0.05 for ABHD12^−/− and ABHD12^+/+ groups. (c) Concentrations of secreted lyso-PS from ABHD12^+/+ and ABHD12^−/− macrophages treated with vehicle (PBS) or LPS (5 μg/mL) for 7 h. […] Student's t-test: ** p<0.0005, *** p<0.0001 for KC01-treated versus DMSO-treated groups.
# Peritoneal macrophages were elicited and harvested from mice according to the standard protocols available from LIPID MAPS (See http://www.lipidmaps.org/protocols/PP0000001400.pdf and http://www.lipidmaps.org/protocols/PP0000001500.pdf). After removal of the RBC lysis buffer, the macrophages were re-suspended in RPMI 1640 with 10% FCS and IX penicillin-streptomycin. Cell counts measured using a Bio-Rad TC10 automated cell counter, and equal numbers of cells (2×10^6) were plated in 10 cm tissue culture dishes. Macrophages were allowed to adhere to the plates for 2 h at 37° C. and 5% CO2. […] Macrophages were then stimulated with lipopolysaccharide (5 μg/mL) for 7 hours. Sterile PBS was the vehicle in these studies. Four milliliters of the media was used for measuring secreted metabolites, and 0.5 mL was used for cytokine measurements.
# [1] = system: mouse peritoneal macrophages; experiment: Lyso-PS content of thioglycollate-elicited peritoneal macrophages; type: cell-based; conditions: pre-treatment 1 μM, 4 h; LPS 5 μg/mL, 7 h
# Protocol: ABHD16A^+/+, ABHD16A^+/+, and ABHD16A^−/− littermates of 10 weeks age were anaesthetized by isoflurane and killed by decapitation. The tissues (brains were sliced laterally into two hemispheres; entire spinal cord) were harvested, weighed, and immediately submerged in liquid N2. Tissues (one half brain or entire spinal cord) were then Dounce-homogenized in 8 mL of 2:1:1 (vol/vol/vol) CHCl3: MeOH: PBS containing the internal standard mix (1 nmol 17:1 FFA, and 100 pmol each of 17:1 lyso-PS, 17:0-20:4 PS, 17:1 lyso-PC, 17:0-20:4 PC, 17:0-20:4 PE and 50 pmol of 2-AG-d5). Homogenates were transferred to a glass vial and centrifuged at 2800×g for 10 minutes to separate the two phases. The organic phase (bottom) was removed, 200 μL of formic acid was added to acidify the aqueous homogenate (to enhance extraction of phospholipids), and CHCl3 was added to make up 8 mL volume. […]
# All the metabolites analyzed in this study were quantified using the multiple reaction monitoring (MRM) methods the targeted LC/MS analysis was done using an Agilent Technologies 6460 Triple Quad LC/M with an Agilent Technologies 1290 Infinity series quaternary pump. All data was collected using the LC/MS Data Acquisition mode of the Mass Hunter Workstation Software version B.05.00 build 5.0.5027.0 SP, and analyzed using the Quantitative Analysis mode of the same software. […]
# [2] = system: mouse peritoneal macrophages; experiment: LPS-induced cytokine release from peritoneal macrophages; type: cell-based; conditions: pre-treatment 1 μM, 4 h; LPS 5 μg/mL, 7 h
# Protocol: All PS-lipase substrate assays were performed on either 18:0-18:2 PS (Avanti Catalog #840063) or 16:0-18:1 PS (Avanti Catalog #840034). 17:1 FFA (Sigma-Aldrich #H8896) was used an internal standard for substrate assays, as well as lipidomic analysis. 2-AG-d5 (Catalog #362162) and PGE2-d9 (Catalog #10581) were purchased from Cayman Chemicals. COLO205, MCF7, K562 and HEK293T cells were purchased from ATCC. All full-length cDNA constructs coding for serine hydrolases ABHD16A, and ABHD12 were purchased from Open Biosystems (GE Healthcare), and all primers were obtained from Integrated DNA Technologies. All DNA sequencing was performed by Eton Biosciences Inc. All cytokine analysis was done using single analyte ELISA kits purchased from R&D Systems, Mouse TNF-α (Catalog # DY410), Mouse IL-6 (Catalog # DY406), and Mouse IL-1β (Catalog # DY401). All tissue culture media and supplements (RPMI 1640, DMEM, and Trypsin) were purchased from Caisson Labs, and SILAC RPMI was purchased from Thermo Scientific. […]
# Peritoneal macrophages were elicited and harvested from mice according to the standard protocols available from LIPID MAPS (See http://www.lipidmaps.org/protocols/PP0000001400.pdf and http://www.lipidmaps.org/protocols/PP0000001500.pdf). […] Cell counts measured using a Bio-Rad TC10 automated cell counter, and equal numbers of cells (2×10^6) were plated in 10 cm tissue culture dishes. […]
# [3] = system: additional off-targets (serine hydrolases); experiment: ABPP-SILAC, COLO205 cells treated in situ; type: cell-based, human; conditions: 1 μM, 4 h
smiles,measurement,setting,value
"CCCCCCCCCCCCCC1OC(=O)/C1=C\CCCCC(N)=O (stereo not shown) [KC01, (Z)-6-(2-oxo-4-tridecyloxetan-3-ylidene)hexanamide]",LPS-induced increases in lyso-PSs and cytokine secretion,ABHD12−/− macrophages,both blocked
same,basal and LPS-induced cellular and secreted lyso-PSs,[1],reduced
same,LPS-induced cytokine release,[2],significantly blunted
same,inhibition,[3],50-80%
